Measurements from patent publication US8703752B2 (priority 2003, dated 2014).

Key:
[1] = tested on: Hedgehog protein signaling pathway; experiment: Inhibition of Shh-induced differentiation of C3H10T1/2 cells (alkaline phosphatase activity, OD 415 nm); assay type: cell-based, mouse; conditions: for inhibition of the alkaline phosphatase activity induced by the overexpression of Shh: 10 μM, 5 days, C3H10T1/2 cells transfected with Shh plasmid pRK5
Description: The differentiation of the C3H10T1/2 cells, which is accompanied by induction of alkaline phosphatase activity, is then evaluated by measuring the optical density at 415 nm, in the presence of the alkaline phosphatase substrate, para-nitrophenyl phosphate. The values indicated correspond to the mean±standard error (n=4), and
The inhibition of differentiation of the C3H10T1/2 cells is expressed through the percentage alkaline phosphatase activity, relative to the nontreated cells (maximum activity=100%). The values indicated correspond to the mean±standard error (n=4) of two independent experiments.
The C3H10T1/2 pluripotent fibroblast cell line (ATCC) is cultured under the conditions recommended by the ATCC. C3H10T1/2 cells were transfected with the plasmid pRK5 encoding the mouse Shh protein (Taipale et al., Nature, 2001, 411, 349-354), using calcium phosphate, according to conventional protocols.

[2] = tested on: mammalian embryos; conditions: cited from earlier work
[3] = molecular target: glucocorticoid receptors (Homo sapiens, UniProt P04150); conditions: cited from earlier work
Sequence of glucocorticoid receptors (P04150 whole entry): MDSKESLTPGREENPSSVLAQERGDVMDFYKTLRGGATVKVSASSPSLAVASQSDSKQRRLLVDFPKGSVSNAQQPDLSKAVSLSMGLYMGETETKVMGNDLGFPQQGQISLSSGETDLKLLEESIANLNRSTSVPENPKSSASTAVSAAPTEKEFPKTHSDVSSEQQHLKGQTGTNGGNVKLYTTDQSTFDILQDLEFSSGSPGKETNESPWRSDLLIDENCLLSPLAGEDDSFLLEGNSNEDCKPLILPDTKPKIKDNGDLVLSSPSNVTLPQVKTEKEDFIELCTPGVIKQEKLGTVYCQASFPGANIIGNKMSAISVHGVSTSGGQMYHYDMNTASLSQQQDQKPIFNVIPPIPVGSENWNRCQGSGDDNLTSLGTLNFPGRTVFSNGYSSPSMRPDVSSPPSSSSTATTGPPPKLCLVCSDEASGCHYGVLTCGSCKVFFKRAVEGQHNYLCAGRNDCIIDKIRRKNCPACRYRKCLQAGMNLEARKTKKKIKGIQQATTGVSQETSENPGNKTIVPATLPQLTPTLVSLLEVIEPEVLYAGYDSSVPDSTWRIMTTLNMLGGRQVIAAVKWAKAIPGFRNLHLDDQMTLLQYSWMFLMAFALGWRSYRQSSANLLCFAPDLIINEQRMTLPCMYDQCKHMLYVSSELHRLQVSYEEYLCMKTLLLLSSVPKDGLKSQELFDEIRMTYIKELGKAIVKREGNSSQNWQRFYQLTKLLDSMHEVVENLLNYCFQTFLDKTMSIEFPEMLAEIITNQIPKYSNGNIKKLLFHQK

Compound	inhibition of the alkaline phosphatase activity induced by the overexpression of Shh [1]	IC50 ([1]; C3H10T1/2 cells transfected with Shh plasmid pRK5, treated 5 days, 1 nM to 10 μM, alkaline phosphatase activity, mean±standard error (n=4), two experiments, read-out: concentration that inhibits 50% of cell differentiation (IC50)) [µM]	teratogenic effect [2]	affinity for glucocorticoid receptors [3]
CC#C[C@]1(O)CC[C@H]2[C@@H]3CCC4=CC(=O)CCC4=C3[C@@H](c3ccc(N(C)C)cc3)C[C@@]21C [mifepristone, 17β-hydroxy-11β-(4-dimethylaminophenyl)-17α-(prop-1-ynyl)estra-4,9-dien-3-one]	completely inhibits	3.7	devoid of any teratogenic effect	strong affinity
CC1=C2C[C@H]3[C@@H](CC=C4C[C@@H](O)CC[C@@]43C)[C@@H]2CC[C@]12O[C@@H]1C[C@H](C)CN[C@H]1[C@H]2C [cyclopamine]	completely inhibited		teratogenic agent that causes holoprosencephaly and cyclopia	
